Measured values reported in ChEMBL document CHEMBL4152218, “Novel hydrazide-hydrazone and amide substituted coumarin derivatives: Synthesis, cytotoxicity screening, microarray, radiolabeling and in vivo pharmacokinetic studies” (Eur J Med Chem, 2018).

test system: PANC-1; test: Antiproliferative activity against human PANC1 cells after 48 hrs by resazurin dye-based fluorescence assay; format: functional, cell-based; conditions: PANC-1, 48 h

SMILES	IC50 [µM]
Cc1noc(NS(=O)(=O)c2ccc(NC(=O)c3cc4ccccc4oc3=O)cc2)c1C	19.9
O=C(N/N=C/c1cc2ccccc2nc1Cl)c1cc2cc([N+](=O)[O-])ccc2oc1=O	38.8
CCOc1ccc2nc(Cl)c(/C=N/NC(=O)c3cc4cc(Br)ccc4oc3=O)cc2c1	17

Further lines, results first:

IC50 [µM]	SMILES
14.3	CCOc1ccc(NC(=O)c2cc3ccc(O)cc3oc2=O)cc1
29.9	CCOc1ccc2nc(Cl)c(/C=N/NC(=O)c3cc4ccccc4oc3=O)cc2c1

test system: HepG2; test: Antiproliferative activity against human HepG2 cells after 48 hrs by resazurin dye-based fluorescence assay; format: functional, cell-based; conditions: HepG2, 48 h

SMILES	IC50 [µM]
Cc1noc(NS(=O)(=O)c2ccc(NC(=O)c3cc4ccccc4oc3=O)cc2)c1C	24
O=C(N/N=C/c1cc2ccccc2nc1Cl)c1cc2cc([N+](=O)[O-])ccc2oc1=O	22.8
CCOc1ccc2nc(Cl)c(/C=N/NC(=O)c3cc4cc(Br)ccc4oc3=O)cc2c1	29

Results, then the compound that gave them:

IC50 [µM]	SMILES
17.3	CCOc1ccc(NC(=O)c2cc3ccc(O)cc3oc2=O)cc1
33.1	CCOc1ccc2nc(Cl)c(/C=N/NC(=O)c3cc4ccccc4oc3=O)cc2c1

test system: CCRF-CEM; test: Antiproliferative activity against human CCRF-CEM cells after 48 hrs by resazurin dye-based fluorescence assay; format: functional, cell-based; conditions: not given

SMILES	IC50 [µM]
Cc1noc(NS(=O)(=O)c2ccc(NC(=O)c3cc4ccccc4oc3=O)cc2)c1C	26.6
O=C(N/N=C/c1cc2ccccc2nc1Cl)c1cc2cc([N+](=O)[O-])ccc2oc1=O	26
CCOc1ccc2nc(Cl)c(/C=N/NC(=O)c3cc4cc(Br)ccc4oc3=O)cc2c1	12.9

Continued, values first:

IC50 [µM]	SMILES
12.6	CCOc1ccc(NC(=O)c2cc3ccc(O)cc3oc2=O)cc1
6.32	CCOc1ccc2nc(Cl)c(/C=N/NC(=O)c3cc4ccccc4oc3=O)cc2c1

test system: hTERT-BJ; test: Cytotoxicity against hTERT-BJ cells after 48 hrs by resazurin dye-based fluorescence assay; format: cell-based; conditions: Homo sapiens

SMILES	IC50 [µM]
CCOc1ccc(NC(=O)c2cc3ccc(O)cc3oc2=O)cc1	> 50
CCOc1ccc2nc(Cl)c(/C=N/NC(=O)c3cc4ccccc4oc3=O)cc2c1	> 50
Cc1noc(NS(=O)(=O)c2ccc(NC(=O)c3cc4ccccc4oc3=O)cc2)c1C	> 50
O=C(N/N=C/c1cc2ccccc2nc1Cl)c1cc2cc([N+](=O)[O-])ccc2oc1=O	> 50
CCOc1ccc2nc(Cl)c(/C=N/NC(=O)c3cc4cc(Br)ccc4oc3=O)cc2c1	> 50

test system: not listed separately; test: Selectivity index, ratio of IC50 for hTERT-RPE1 cells to IC50 for human PANC1 cells; format: toxicity; conditions: hTERT-RPE1 cells versus PANC1 cells, read-out: Ratio IC50

SMILES	selectivity ratio
CCOc1ccc(NC(=O)c2cc3ccc(O)cc3oc2=O)cc1	> 3.5
CCOc1ccc2nc(Cl)c(/C=N/NC(=O)c3cc4ccccc4oc3=O)cc2c1	> 1.67
Cc1noc(NS(=O)(=O)c2ccc(NC(=O)c3cc4ccccc4oc3=O)cc2)c1C	> 2.51
O=C(N/N=C/c1cc2ccccc2nc1Cl)c1cc2cc([N+](=O)[O-])ccc2oc1=O	> 1.29
CCOc1ccc2nc(Cl)c(/C=N/NC(=O)c3cc4cc(Br)ccc4oc3=O)cc2c1	> 2.94

test system: not listed separately; test: Selectivity index, ratio of IC50 for hTERT-BJ cells to IC50 for human PANC1 cells; format: toxicity; conditions: hTERT-BJ cells versus PANC1 cells, read-out: Ratio IC50

SMILES	selectivity ratio
CCOc1ccc(NC(=O)c2cc3ccc(O)cc3oc2=O)cc1	> 3.5
CCOc1ccc2nc(Cl)c(/C=N/NC(=O)c3cc4ccccc4oc3=O)cc2c1	> 1.67
Cc1noc(NS(=O)(=O)c2ccc(NC(=O)c3cc4ccccc4oc3=O)cc2)c1C	> 2.51
O=C(N/N=C/c1cc2ccccc2nc1Cl)c1cc2cc([N+](=O)[O-])ccc2oc1=O	> 1.29
CCOc1ccc2nc(Cl)c(/C=N/NC(=O)c3cc4cc(Br)ccc4oc3=O)cc2c1	> 2.94

test system: not listed separately; test: Selectivity index, ratio of IC50 for hTERT-RPE1 cells to IC50 for human HepG2 cells; format: toxicity; conditions: hTERT-RPE1 cells versus HepG2 cells, read-out: Ratio IC50

SMILES	selectivity ratio
CCOc1ccc(NC(=O)c2cc3ccc(O)cc3oc2=O)cc1	> 2.88
CCOc1ccc2nc(Cl)c(/C=N/NC(=O)c3cc4ccccc4oc3=O)cc2c1	> 1.51
Cc1noc(NS(=O)(=O)c2ccc(NC(=O)c3cc4ccccc4oc3=O)cc2)c1C	> 2.09
O=C(N/N=C/c1cc2ccccc2nc1Cl)c1cc2cc([N+](=O)[O-])ccc2oc1=O	> 2.2
CCOc1ccc2nc(Cl)c(/C=N/NC(=O)c3cc4cc(Br)ccc4oc3=O)cc2c1	> 1.72

test system: not listed separately; test: Selectivity index, ratio of IC50 for hTERT-BJ cells to IC50 for human HepG2 cells; format: toxicity; conditions: hTERT-BJ cells versus HepG2 cells, read-out: Ratio IC50

SMILES	selectivity ratio
CCOc1ccc(NC(=O)c2cc3ccc(O)cc3oc2=O)cc1	> 2.88
CCOc1ccc2nc(Cl)c(/C=N/NC(=O)c3cc4ccccc4oc3=O)cc2c1	> 1.51
Cc1noc(NS(=O)(=O)c2ccc(NC(=O)c3cc4ccccc4oc3=O)cc2)c1C	> 2.09
O=C(N/N=C/c1cc2ccccc2nc1Cl)c1cc2cc([N+](=O)[O-])ccc2oc1=O	> 2.2
CCOc1ccc2nc(Cl)c(/C=N/NC(=O)c3cc4cc(Br)ccc4oc3=O)cc2c1	> 1.72

test system: not listed separately; test: Selectivity index, ratio of IC50 for hTERT-RPE1 cells to IC50 for human CCRF-CEM cells; format: toxicity; conditions: hTERT-RPE1 cells versus CCRF-CEM cells, read-out: Ratio IC50

SMILES	selectivity ratio
CCOc1ccc(NC(=O)c2cc3ccc(O)cc3oc2=O)cc1	> 3.97
CCOc1ccc2nc(Cl)c(/C=N/NC(=O)c3cc4ccccc4oc3=O)cc2c1	> 7.92
Cc1noc(NS(=O)(=O)c2ccc(NC(=O)c3cc4ccccc4oc3=O)cc2)c1C	> 1.88
O=C(N/N=C/c1cc2ccccc2nc1Cl)c1cc2cc([N+](=O)[O-])ccc2oc1=O	> 1.92
CCOc1ccc2nc(Cl)c(/C=N/NC(=O)c3cc4cc(Br)ccc4oc3=O)cc2c1	> 3.87

test system: not listed separately; test: Selectivity index, ratio of IC50 for hTERT-BJ cells to IC50 for human CCRF-CEM cells; format: toxicity; conditions: hTERT-BJ cells versus CCRF-CEM cells, read-out: Ratio IC50

SMILES	selectivity ratio
CCOc1ccc(NC(=O)c2cc3ccc(O)cc3oc2=O)cc1	> 3.97
CCOc1ccc2nc(Cl)c(/C=N/NC(=O)c3cc4ccccc4oc3=O)cc2c1	> 7.92
Cc1noc(NS(=O)(=O)c2ccc(NC(=O)c3cc4ccccc4oc3=O)cc2)c1C	> 1.88
O=C(N/N=C/c1cc2ccccc2nc1Cl)c1cc2cc([N+](=O)[O-])ccc2oc1=O	> 1.92
CCOc1ccc2nc(Cl)c(/C=N/NC(=O)c3cc4cc(Br)ccc4oc3=O)cc2c1	> 3.87

test system: TERT-RPE1; test: Cytotoxicity against hTERT-RPE1 cells after 48 hrs by resazurin dye-based fluorescence assay; format: cell-based; conditions: Homo sapiens, RPE-1, 48 h

SMILES	IC50 [µM]
CCOc1ccc(NC(=O)c2cc3ccc(O)cc3oc2=O)cc1	> 50
CCOc1ccc2nc(Cl)c(/C=N/NC(=O)c3cc4ccccc4oc3=O)cc2c1	> 50
Cc1noc(NS(=O)(=O)c2ccc(NC(=O)c3cc4ccccc4oc3=O)cc2)c1C	> 50
O=C(N/N=C/c1cc2ccccc2nc1Cl)c1cc2cc([N+](=O)[O-])ccc2oc1=O	> 50
CCOc1ccc2nc(Cl)c(/C=N/NC(=O)c3cc4cc(Br)ccc4oc3=O)cc2c1	> 50

test system: hTERT-BJ; test: Cytotoxicity against hTERT-BJ cells at 6.25 uM after 48 hrs by resazurin dye-based fluorescence assay relative to control; format: cell-based; conditions: human

SMILES	Activity [%]
CCOc1ccc(NC(=O)c2cc3ccc(O)cc3oc2=O)cc1	10.17
CCOc1ccc2nc(Cl)c(/C=N/NC(=O)c3cc4ccccc4oc3=O)cc2c1	2.77
Cc1noc(NS(=O)(=O)c2ccc(NC(=O)c3cc4ccccc4oc3=O)cc2)c1C	8.49
O=C(N/N=C/c1cc2ccccc2nc1Cl)c1cc2cc([N+](=O)[O-])ccc2oc1=O	1.2
CCOc1ccc2nc(Cl)c(/C=N/NC(=O)c3cc4cc(Br)ccc4oc3=O)cc2c1	0.53

test system: hTERT-BJ; test: Cytotoxicity against hTERT-BJ cells at 12.50 uM after 48 hrs by resazurin dye-based fluorescence assay relative to control; format: cell-based; conditions: human, 12.5 µM

SMILES	Activity [%]
CCOc1ccc(NC(=O)c2cc3ccc(O)cc3oc2=O)cc1	15.98
CCOc1ccc2nc(Cl)c(/C=N/NC(=O)c3cc4ccccc4oc3=O)cc2c1	5.65
Cc1noc(NS(=O)(=O)c2ccc(NC(=O)c3cc4ccccc4oc3=O)cc2)c1C	10.4
O=C(N/N=C/c1cc2ccccc2nc1Cl)c1cc2cc([N+](=O)[O-])ccc2oc1=O	1.37
CCOc1ccc2nc(Cl)c(/C=N/NC(=O)c3cc4cc(Br)ccc4oc3=O)cc2c1	1.77

test system: hTERT-BJ; test: Cytotoxicity against hTERT-BJ cells at 25 uM after 48 hrs by resazurin dye-based fluorescence assay relative to control; format: cell-based; conditions: human

SMILES	Activity [%]
CCOc1ccc(NC(=O)c2cc3ccc(O)cc3oc2=O)cc1	30.03
CCOc1ccc2nc(Cl)c(/C=N/NC(=O)c3cc4ccccc4oc3=O)cc2c1	3.92
Cc1noc(NS(=O)(=O)c2ccc(NC(=O)c3cc4ccccc4oc3=O)cc2)c1C	15.88
O=C(N/N=C/c1cc2ccccc2nc1Cl)c1cc2cc([N+](=O)[O-])ccc2oc1=O	1.77
CCOc1ccc2nc(Cl)c(/C=N/NC(=O)c3cc4cc(Br)ccc4oc3=O)cc2c1	2.63

test system: hTERT-BJ; test: Cytotoxicity against hTERT-BJ cells at 50 uM after 48 hrs by resazurin dye-based fluorescence assay relative to control; format: cell-based; conditions: human

SMILES	Activity [%]
CCOc1ccc(NC(=O)c2cc3ccc(O)cc3oc2=O)cc1	31.23
CCOc1ccc2nc(Cl)c(/C=N/NC(=O)c3cc4ccccc4oc3=O)cc2c1	3.64
Cc1noc(NS(=O)(=O)c2ccc(NC(=O)c3cc4ccccc4oc3=O)cc2)c1C	26.66
O=C(N/N=C/c1cc2ccccc2nc1Cl)c1cc2cc([N+](=O)[O-])ccc2oc1=O	2.73
CCOc1ccc2nc(Cl)c(/C=N/NC(=O)c3cc4cc(Br)ccc4oc3=O)cc2c1	2.67

test system: TERT-RPE1; test: Cytotoxicity against hTERT-RPE1 cells at 6.25 uM after 48 hrs by resazurin dye-based fluorescence assay relative to control; format: cell-based; conditions: human, tert-rpe1, 48 h

SMILES	Activity [%]
CCOc1ccc(NC(=O)c2cc3ccc(O)cc3oc2=O)cc1	11.23
CCOc1ccc2nc(Cl)c(/C=N/NC(=O)c3cc4ccccc4oc3=O)cc2c1	1.13
Cc1noc(NS(=O)(=O)c2ccc(NC(=O)c3cc4ccccc4oc3=O)cc2)c1C	9.28
O=C(N/N=C/c1cc2ccccc2nc1Cl)c1cc2cc([N+](=O)[O-])ccc2oc1=O	1.3
CCOc1ccc2nc(Cl)c(/C=N/NC(=O)c3cc4cc(Br)ccc4oc3=O)cc2c1	5.41

test system: TERT-RPE1; test: Cytotoxicity against hTERT-RPE1 cells at 12.50 uM after 48 hrs by resazurin dye-based fluorescence assay relative to control; format: cell-based; conditions: human, tert-rpe1, 48 h, 12.5 µM

SMILES	Activity [%]
CCOc1ccc(NC(=O)c2cc3ccc(O)cc3oc2=O)cc1	13.91
CCOc1ccc2nc(Cl)c(/C=N/NC(=O)c3cc4ccccc4oc3=O)cc2c1	1.23
Cc1noc(NS(=O)(=O)c2ccc(NC(=O)c3cc4ccccc4oc3=O)cc2)c1C	13.72
O=C(N/N=C/c1cc2ccccc2nc1Cl)c1cc2cc([N+](=O)[O-])ccc2oc1=O	0.73
CCOc1ccc2nc(Cl)c(/C=N/NC(=O)c3cc4cc(Br)ccc4oc3=O)cc2c1	12.4

test system: TERT-RPE1; test: Cytotoxicity against hTERT-RPE1 cells at 25 uM after 48 hrs by resazurin dye-based fluorescence assay relative to control; format: cell-based; conditions: human, tert-rpe1, 48 h

SMILES	Activity [%]
CCOc1ccc(NC(=O)c2cc3ccc(O)cc3oc2=O)cc1	19.22
CCOc1ccc2nc(Cl)c(/C=N/NC(=O)c3cc4ccccc4oc3=O)cc2c1	9.5
Cc1noc(NS(=O)(=O)c2ccc(NC(=O)c3cc4ccccc4oc3=O)cc2)c1C	33.32
O=C(N/N=C/c1cc2ccccc2nc1Cl)c1cc2cc([N+](=O)[O-])ccc2oc1=O	1.96
CCOc1ccc2nc(Cl)c(/C=N/NC(=O)c3cc4cc(Br)ccc4oc3=O)cc2c1	13.67

test system: TERT-RPE1; test: Cytotoxicity against hTERT-RPE1 cells at 50 uM after 48 hrs by resazurin dye-based fluorescence assay relative to control; format: cell-based; conditions: human, tert-rpe1, 48 h

SMILES	Activity [%]
CCOc1ccc(NC(=O)c2cc3ccc(O)cc3oc2=O)cc1	36.28
CCOc1ccc2nc(Cl)c(/C=N/NC(=O)c3cc4ccccc4oc3=O)cc2c1	9.97
Cc1noc(NS(=O)(=O)c2ccc(NC(=O)c3cc4ccccc4oc3=O)cc2)c1C	47.61
O=C(N/N=C/c1cc2ccccc2nc1Cl)c1cc2cc([N+](=O)[O-])ccc2oc1=O	2.33
CCOc1ccc2nc(Cl)c(/C=N/NC(=O)c3cc4cc(Br)ccc4oc3=O)cc2c1	20.15
